Key:
CYP1A2 = target: T1, CYP1A2 (Homo sapiens, UniProt P05177); experiment: in vitro
T1 sequence (P05177 whole entry): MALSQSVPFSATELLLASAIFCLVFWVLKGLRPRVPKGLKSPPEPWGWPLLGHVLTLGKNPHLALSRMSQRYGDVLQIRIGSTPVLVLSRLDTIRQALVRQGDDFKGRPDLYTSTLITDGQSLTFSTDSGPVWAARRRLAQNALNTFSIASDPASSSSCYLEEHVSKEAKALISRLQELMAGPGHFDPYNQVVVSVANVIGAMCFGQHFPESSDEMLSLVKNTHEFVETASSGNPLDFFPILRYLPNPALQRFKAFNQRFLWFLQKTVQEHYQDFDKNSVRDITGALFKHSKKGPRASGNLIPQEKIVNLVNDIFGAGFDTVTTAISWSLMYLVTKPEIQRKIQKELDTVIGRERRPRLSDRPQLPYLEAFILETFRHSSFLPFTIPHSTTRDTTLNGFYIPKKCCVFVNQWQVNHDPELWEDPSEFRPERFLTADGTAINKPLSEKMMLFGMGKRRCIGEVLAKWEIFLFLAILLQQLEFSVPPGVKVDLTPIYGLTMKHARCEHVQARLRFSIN

CYP2C8 = target: T2, CYP2C8 (Homo sapiens, UniProt P10632); experiment: in vitro
T2 sequence (P10632 whole entry): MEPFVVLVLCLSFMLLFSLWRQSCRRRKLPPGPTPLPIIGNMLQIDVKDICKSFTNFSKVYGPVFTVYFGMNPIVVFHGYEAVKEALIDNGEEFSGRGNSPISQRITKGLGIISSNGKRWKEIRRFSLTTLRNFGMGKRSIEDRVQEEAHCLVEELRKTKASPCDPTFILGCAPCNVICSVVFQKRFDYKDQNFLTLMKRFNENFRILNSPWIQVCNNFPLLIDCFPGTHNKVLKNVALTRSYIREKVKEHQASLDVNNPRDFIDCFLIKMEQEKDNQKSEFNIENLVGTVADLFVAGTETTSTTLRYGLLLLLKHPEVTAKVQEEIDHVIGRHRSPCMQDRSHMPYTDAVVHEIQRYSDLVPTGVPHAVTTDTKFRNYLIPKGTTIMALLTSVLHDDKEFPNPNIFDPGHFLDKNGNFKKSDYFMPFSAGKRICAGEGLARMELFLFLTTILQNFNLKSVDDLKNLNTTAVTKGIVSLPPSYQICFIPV

Liver microsome [1] = experiment: Metabolic activation in human liver microsomes assessed as [3H]GSH adduct formation rate measured per mg of protein at 100 uM by [3H]GSH trapping assay
CYP2C9 = CYP2C9 (Homo sapiens, UniProt P11712); experiment: in vitro
CYP2D6 = CYP2D6 (Homo sapiens, UniProt P10635); experiment: in vitro
CYP3A4 = CYP3A4 (Homo sapiens, UniProt P08684); experiment: in vitro
CYP2B6 = target: T3, CYP2B6 (Homo sapiens, UniProt P20813); experiment: in vitro
T3 sequence (P20813 whole entry): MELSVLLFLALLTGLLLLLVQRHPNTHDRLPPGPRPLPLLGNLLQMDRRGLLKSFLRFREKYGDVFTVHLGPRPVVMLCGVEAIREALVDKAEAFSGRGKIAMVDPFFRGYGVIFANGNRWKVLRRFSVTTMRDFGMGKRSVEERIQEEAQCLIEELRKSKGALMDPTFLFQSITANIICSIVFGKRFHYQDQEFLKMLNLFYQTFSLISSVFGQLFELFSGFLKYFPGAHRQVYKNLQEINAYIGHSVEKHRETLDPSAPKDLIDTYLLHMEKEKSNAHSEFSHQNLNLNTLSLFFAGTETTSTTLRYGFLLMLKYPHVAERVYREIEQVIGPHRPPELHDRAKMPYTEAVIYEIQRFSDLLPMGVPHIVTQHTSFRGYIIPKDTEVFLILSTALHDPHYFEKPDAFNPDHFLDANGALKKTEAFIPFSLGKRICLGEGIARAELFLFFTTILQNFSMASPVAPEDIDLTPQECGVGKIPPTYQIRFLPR

Liver microsome [2] = experiment: Covalent binding in human liver microsomes measured per mg of protein using radiolabelled compound at 10 uM after 1 hr incubation by liquid scintillation counting
CYP2C19 = CYP2C19 (Homo sapiens, UniProt P33261); experiment: in vitro
[3] = Intrinsic clearance for reactive metabolites formation per mg of protein based on cytochrome P450 (unknown origin) inactivation rate by TDI assay; settings: human
[4] = Intrinsic clearance for reactive metabolites formation assessed as summation of [3H]GSH adduct formation rate-based reactive metabolites formation and cytochrome P450 (unknown origin) inactivation rate-based reactive metabolites formation; settings: human

Sequence of CYP3A4 (P08684 whole entry): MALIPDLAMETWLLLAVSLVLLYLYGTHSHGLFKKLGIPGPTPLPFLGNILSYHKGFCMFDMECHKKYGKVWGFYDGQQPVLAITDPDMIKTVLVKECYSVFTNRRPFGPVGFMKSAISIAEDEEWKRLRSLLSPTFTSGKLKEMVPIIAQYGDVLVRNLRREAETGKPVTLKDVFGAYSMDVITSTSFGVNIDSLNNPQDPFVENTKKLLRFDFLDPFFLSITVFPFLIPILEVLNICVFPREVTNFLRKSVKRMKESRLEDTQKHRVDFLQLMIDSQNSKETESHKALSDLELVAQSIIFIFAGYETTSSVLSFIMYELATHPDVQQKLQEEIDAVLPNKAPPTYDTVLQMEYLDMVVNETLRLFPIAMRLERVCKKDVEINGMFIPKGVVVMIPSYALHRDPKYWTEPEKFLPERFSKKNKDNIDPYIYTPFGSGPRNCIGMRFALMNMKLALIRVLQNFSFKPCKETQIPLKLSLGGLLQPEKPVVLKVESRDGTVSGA
Sequence of CYP2C9 (P11712 whole entry): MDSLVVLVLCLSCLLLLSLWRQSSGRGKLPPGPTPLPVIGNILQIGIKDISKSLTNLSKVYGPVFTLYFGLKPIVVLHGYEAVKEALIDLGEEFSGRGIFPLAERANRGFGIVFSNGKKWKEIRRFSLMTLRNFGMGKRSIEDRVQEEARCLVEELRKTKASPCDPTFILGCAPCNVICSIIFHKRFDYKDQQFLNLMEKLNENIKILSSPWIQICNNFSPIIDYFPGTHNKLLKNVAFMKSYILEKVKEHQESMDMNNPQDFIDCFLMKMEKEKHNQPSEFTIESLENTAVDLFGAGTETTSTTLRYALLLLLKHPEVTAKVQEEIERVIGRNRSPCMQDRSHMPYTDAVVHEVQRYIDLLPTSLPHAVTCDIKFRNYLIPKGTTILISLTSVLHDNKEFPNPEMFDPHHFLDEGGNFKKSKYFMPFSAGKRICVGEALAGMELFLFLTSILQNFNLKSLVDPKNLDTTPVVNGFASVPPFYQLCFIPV
Sequence of CYP2C19 (P33261 whole entry): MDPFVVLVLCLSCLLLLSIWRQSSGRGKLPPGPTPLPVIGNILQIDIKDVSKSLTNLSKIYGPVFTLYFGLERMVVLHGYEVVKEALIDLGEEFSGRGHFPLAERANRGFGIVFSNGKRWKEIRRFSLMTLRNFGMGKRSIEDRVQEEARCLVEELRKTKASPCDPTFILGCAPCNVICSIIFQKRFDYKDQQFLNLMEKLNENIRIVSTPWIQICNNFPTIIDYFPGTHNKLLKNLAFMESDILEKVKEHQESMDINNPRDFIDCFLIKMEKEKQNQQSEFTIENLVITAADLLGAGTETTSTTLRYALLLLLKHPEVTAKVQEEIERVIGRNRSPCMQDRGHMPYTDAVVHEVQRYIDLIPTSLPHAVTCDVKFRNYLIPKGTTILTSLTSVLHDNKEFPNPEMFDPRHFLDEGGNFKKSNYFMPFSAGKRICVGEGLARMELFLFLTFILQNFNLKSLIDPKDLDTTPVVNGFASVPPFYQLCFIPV
Sequence of CYP2D6 (P10635 whole entry): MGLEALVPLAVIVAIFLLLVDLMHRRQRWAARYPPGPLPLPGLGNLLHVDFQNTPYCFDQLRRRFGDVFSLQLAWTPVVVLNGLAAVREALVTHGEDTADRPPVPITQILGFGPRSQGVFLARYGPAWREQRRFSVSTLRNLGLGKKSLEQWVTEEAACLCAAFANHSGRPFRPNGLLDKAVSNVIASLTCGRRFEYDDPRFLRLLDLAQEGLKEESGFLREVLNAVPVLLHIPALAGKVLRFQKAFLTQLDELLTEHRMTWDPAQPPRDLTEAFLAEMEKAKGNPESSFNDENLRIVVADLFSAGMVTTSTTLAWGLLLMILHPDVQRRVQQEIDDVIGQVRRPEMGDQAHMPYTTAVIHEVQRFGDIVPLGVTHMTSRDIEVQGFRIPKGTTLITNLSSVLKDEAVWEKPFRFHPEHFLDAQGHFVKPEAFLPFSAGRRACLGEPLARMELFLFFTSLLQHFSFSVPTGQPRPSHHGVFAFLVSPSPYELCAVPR

Compound | inhibition at 100 µM (CYP1A2) [%] | inhibition at 100 µM (CYP2C8) [%] | Drug metabolism (Liver microsome [1]) | inhibition at 100 µM (CYP2C9) [%] | inhibition at 100 µM (CYP2D6) [%] | inhibition at 100 µM (CYP3A4) [%] | inhibition at 100 µM (CYP2B6) [%] | PB (Liver microsome [2]) [pmol] | inhibition at 100 µM (CYP2C19; microsomes) [%] | inhibition at 100 µM (CYP2C19; human liver microsomes) [%] | clearance [3] [µL/min/mg] | clearance [4] [µL/min/mg]
CN(C)CCCN1c2ccccc2CCc2ccccc21 [IMIPRAMINE] | < 10 | < 10 | – | < 10 | < 10 | < 10 | < 10 | – | – | – | – | –
CN1CCN(C2=Nc3cc(Cl)ccc3Nc3ccccc32)CC1 [CLOZAPINE] | 12 | < 10 | – | < 10 | < 10 | – | < 10 | – | – | – | – | –
Cn1c(=O)c2c(ncn2C)n(C)c1=O [CAFFEINE] | < 10 | < 10 | metabolite_not_detected | < 10 | < 10 | < 10 | < 10 | 9.9 | – | < 10 | – | –
CCCC(CCC)C(=O)O [VALPROIC ACID] | < 10 | < 10 | – | < 10 | < 10 | < 10 | < 10 | – | – | – | – | –
CCN(CC)CCNC(=O)c1ccc(N)cc1 [PROCAINAMIDE] | < 10 | < 10 | 41.3 pmol/min | < 10 | < 10 | < 10 | < 10 | 5.1 | – | – | – | –
CC[C@H]1OC(=O)[C@H](C)[C@@H](O[C@H]2C[C@@](C)(OC)[C@@H](O)[C@H](C)O2)[C@H](C)[C@@H](O[C@@H]2O[C@H](C)C[C@H](N(C)C)[C@H]2O)[C@](C)(O)C[C@@H](C)C(=O)[C@H](C)[C@@H](O)[C@]1(C)O [ERYTHROMYCIN] | < 10 | < 10 | metabolite_not_detected | < 10 | < 10 | 45 | < 10 | 57.1 | – | < 10 | 0.021 | 0.021
C[C@H]1COc2c(N3CCN(C)CC3)c(F)cc3c(=O)c(C(=O)O)cn1c23.C[C@H]1COc2c(N3CCN(C)CC3)c(F)cc3c(=O)c(C(=O)O)cn1c23.O [LEVOFLOXACIN] | < 10 | < 10 | metabolite_not_detected | < 10 | < 10 | – | < 10 | – | – | < 10 | – | –
Cc1cc(NS(=O)(=O)c2ccc(N)cc2)no1 [SULFAMETHOXAZOLE] | – | < 10 | – | – | – | – | < 10 | – | – | – | – | –
CC[C@H](C)C(=O)O[C@H]1C[C@H](O)C=C2C=C[C@H](C)[C@H](CC[C@@H](O)C[C@@H](O)CC(=O)O)[C@H]21 [PRAVASTATIN] | < 10 | < 10 | metabolite_not_detected | < 10 | < 10 | < 10 | < 10 | 3.7 | < 10 | – | – | –
COc1ccc(CCN(C)CCCC(C#N)(c2ccc(OC)c(OC)c2)C(C)C)cc1OC (centres undefined) | < 10 | < 10 | – | < 10 | < 10 | 51 | 10 | – | < 10 | – | – | –

Now from value to compound:

inhibition at 100 µM (CYP1A2) [%] | inhibition at 100 µM (CYP2C8) [%] | Drug metabolism (Liver microsome [1]) | inhibition at 100 µM (CYP2C9) [%] | inhibition at 100 µM (CYP2D6) [%] | inhibition at 100 µM (CYP3A4) [%] | inhibition at 100 µM (CYP2B6) [%] | PB (Liver microsome [2]) [pmol] | inhibition at 100 µM (CYP2C19; microsomes) [%] | inhibition at 100 µM (CYP2C19; human liver microsomes) [%] | clearance [3] [µL/min/mg] | clearance [4] [µL/min/mg] | Compound
< 10 | < 10 | metabolite_not_detected | < 10 | < 10 | < 10 | < 10 | 30.9 | < 10 | – | – | – | Cc1c(N(C)C)c(=O)n(-c2ccccc2)n1C [AMINOPYRINE]
< 10 | < 10 | metabolite_not_detected | < 10 | < 10 | < 10 | < 10 | 3.4 | – | < 10 | – | – | CCCc1nc(C(C)(C)O)c(C(=O)O)n1Cc1ccc(-c2ccccc2-c2nnn[nH]2)cc1 [OLMESARTAN]
25 | < 10 | – | < 10 | < 10 | < 10 | < 10 | – | < 10 | – | 0.004 | 0.031 | CC(C)NCC(O)COc1cccc2ccccc12 (centres undefined) [PROPRANOLOL]
– | < 10 | – | – | – | – | < 10 | – | – | – | – | – | NS(=O)(=O)c1cc(C(=O)O)c(NCc2ccco2)cc1Cl [FUROSEMIDE]
< 10 | < 10 | metabolite_not_detected | < 10 | < 10 | < 10 | < 10 | 1.4 | – | < 10 | – | – | CCCCC(=O)N(Cc1ccc(-c2ccccc2-c2nnn[nH]2)cc1)[C@H](C(=O)O)C(C)C
28 | < 10 | metabolite_not_detected | < 10 | 24 | < 10 | < 10 | 137 | < 10 | – | 0.007 | 0.007 | Nc1c2c(nc3ccccc13)CCCC2 [TACRINE]
< 10 | 14 | metabolite_not_detected | < 10 | < 10 | < 10 | < 10 | 14.7 | – | < 10 | 0.001 | 0.001 | COc1ccc2c(c1)c(CC(=O)O)c(C)n2C(=O)c1ccc(Cl)cc1 [INDOMETHACIN]
< 10 | < 10 | metabolite_not_detected | < 10 | < 10 | < 10 | < 10 | 6.4 | < 10 | – | – | – | Cc1cc(CC(=O)O)n(C)c1C(=O)c1ccc(Cl)cc1 [ZOMEPIRAC]
– | – | metabolite_not_detected | – | – | – | – | 253.3 | – | – | 3.55 | 3.55 | CC(C)c1nc(CN(C)C(=O)N[C@H](C(=O)N[C@@H](Cc2ccccc2)C[C@H](O)[C@H](Cc2ccccc2)NC(=O)OCc2cncs2)C(C)C)cs1 [RITONAVIR]
– | – | metabolite_not_detected | – | – | – | – | 29.7 | – | – | – | – | COc1cc2c(cc1OC)C(=O)C(CC1CCN(Cc3ccccc3)CC1)C2 (centres undefined) [DONEPEZIL]
– | < 10 | 12.7 pmol/min | – | – | – | < 10 | 352.3 | – | – | – | – | CC(C)c1c(C(=O)Nc2ccccc2)c(-c2ccccc2)c(-c2ccc(F)cc2)n1CC[C@@H](O)C[C@@H](O)CC(=O)O [ATORVASTATIN]
